Assay results taken from article PMC7864068, “α2-Macroglobulin-like protein 1 can conjugate and inhibit proteases through their hydroxyl groups, because of an enhanced reactivity of its thiol ester” (The Journal of Biological Chemistry, 2021).

Experiments:
A2M (α2-macroglobulin) = biological target: T1, A2M (α2-macroglobulin) (Homo sapiens, UniProt P01023, N1088H); experiment: LC-MS/MS PRM of the pepsin-digested thiol ester peptide conjugate; type: biochemical; conditions: covalent ester at thiol ester Gln-975; recombinant A2M activated by chymotrypsin; 200 mM glycerol, HBS pH 7.4, 37 °C
T1 construct: WT purified from plasma; N1088H recombinant from HEK293 cells (gene based on mRNA M11311), native form enriched by LRP1 depletion; tetramer; cleaved by chymotrypsin in the assay
T1 sequence (P01023 24-1474 N1088H): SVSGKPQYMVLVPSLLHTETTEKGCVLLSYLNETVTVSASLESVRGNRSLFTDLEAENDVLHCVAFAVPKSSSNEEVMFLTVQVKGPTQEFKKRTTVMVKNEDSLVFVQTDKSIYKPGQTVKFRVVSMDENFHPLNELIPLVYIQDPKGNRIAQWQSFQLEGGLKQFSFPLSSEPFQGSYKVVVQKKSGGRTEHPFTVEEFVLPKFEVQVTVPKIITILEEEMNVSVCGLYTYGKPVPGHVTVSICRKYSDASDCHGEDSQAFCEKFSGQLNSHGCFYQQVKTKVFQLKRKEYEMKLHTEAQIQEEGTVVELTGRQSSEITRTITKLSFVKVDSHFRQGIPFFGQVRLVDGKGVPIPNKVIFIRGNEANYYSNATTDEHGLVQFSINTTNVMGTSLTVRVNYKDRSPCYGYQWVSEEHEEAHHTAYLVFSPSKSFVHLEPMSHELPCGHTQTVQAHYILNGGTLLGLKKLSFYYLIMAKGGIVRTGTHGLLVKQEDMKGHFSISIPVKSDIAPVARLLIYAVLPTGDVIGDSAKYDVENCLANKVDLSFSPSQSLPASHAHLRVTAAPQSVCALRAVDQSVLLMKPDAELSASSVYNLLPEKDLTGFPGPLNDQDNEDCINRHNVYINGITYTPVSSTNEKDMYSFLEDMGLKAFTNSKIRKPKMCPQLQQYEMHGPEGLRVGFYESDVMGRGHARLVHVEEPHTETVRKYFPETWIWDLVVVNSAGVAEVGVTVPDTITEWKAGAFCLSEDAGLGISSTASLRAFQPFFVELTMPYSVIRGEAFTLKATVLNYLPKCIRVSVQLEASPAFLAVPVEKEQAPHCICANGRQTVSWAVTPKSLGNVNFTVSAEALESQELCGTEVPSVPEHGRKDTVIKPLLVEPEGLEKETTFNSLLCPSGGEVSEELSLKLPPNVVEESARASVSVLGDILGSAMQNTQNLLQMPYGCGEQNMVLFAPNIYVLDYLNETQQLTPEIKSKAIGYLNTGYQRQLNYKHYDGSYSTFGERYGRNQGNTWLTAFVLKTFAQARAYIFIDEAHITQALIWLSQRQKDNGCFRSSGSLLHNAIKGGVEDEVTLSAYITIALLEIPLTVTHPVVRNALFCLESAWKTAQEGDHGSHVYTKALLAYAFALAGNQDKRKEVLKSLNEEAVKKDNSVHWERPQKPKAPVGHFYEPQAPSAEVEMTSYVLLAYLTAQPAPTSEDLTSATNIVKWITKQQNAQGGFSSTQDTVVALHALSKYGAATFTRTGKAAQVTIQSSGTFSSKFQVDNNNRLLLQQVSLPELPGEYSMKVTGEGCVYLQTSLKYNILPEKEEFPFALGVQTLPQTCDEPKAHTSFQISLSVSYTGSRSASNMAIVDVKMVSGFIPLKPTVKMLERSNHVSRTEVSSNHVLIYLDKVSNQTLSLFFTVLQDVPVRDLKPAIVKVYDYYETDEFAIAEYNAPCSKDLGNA

[1] = biological target: T2, A2ML1 (α2-macroglobulin-like protein 1) (Homo sapiens, UniProt A8K2U0); experiment: as above; type: biochemical; conditions: covalent ester at thiol ester Gln-973; A2ML1 activated by chymotrypsin; 200 mM glycerol, HBS pH 7.4, 37 °C
T2 construct: full-length recombinant, secreted by HEK293 Freestyle cells, no tag mentioned, purified by Zn IMAC, anion exchange and size exclusion; monomer; bait region cleaved by chymotrypsin in the assay
T2 sequence (A8K2U0 18-1454): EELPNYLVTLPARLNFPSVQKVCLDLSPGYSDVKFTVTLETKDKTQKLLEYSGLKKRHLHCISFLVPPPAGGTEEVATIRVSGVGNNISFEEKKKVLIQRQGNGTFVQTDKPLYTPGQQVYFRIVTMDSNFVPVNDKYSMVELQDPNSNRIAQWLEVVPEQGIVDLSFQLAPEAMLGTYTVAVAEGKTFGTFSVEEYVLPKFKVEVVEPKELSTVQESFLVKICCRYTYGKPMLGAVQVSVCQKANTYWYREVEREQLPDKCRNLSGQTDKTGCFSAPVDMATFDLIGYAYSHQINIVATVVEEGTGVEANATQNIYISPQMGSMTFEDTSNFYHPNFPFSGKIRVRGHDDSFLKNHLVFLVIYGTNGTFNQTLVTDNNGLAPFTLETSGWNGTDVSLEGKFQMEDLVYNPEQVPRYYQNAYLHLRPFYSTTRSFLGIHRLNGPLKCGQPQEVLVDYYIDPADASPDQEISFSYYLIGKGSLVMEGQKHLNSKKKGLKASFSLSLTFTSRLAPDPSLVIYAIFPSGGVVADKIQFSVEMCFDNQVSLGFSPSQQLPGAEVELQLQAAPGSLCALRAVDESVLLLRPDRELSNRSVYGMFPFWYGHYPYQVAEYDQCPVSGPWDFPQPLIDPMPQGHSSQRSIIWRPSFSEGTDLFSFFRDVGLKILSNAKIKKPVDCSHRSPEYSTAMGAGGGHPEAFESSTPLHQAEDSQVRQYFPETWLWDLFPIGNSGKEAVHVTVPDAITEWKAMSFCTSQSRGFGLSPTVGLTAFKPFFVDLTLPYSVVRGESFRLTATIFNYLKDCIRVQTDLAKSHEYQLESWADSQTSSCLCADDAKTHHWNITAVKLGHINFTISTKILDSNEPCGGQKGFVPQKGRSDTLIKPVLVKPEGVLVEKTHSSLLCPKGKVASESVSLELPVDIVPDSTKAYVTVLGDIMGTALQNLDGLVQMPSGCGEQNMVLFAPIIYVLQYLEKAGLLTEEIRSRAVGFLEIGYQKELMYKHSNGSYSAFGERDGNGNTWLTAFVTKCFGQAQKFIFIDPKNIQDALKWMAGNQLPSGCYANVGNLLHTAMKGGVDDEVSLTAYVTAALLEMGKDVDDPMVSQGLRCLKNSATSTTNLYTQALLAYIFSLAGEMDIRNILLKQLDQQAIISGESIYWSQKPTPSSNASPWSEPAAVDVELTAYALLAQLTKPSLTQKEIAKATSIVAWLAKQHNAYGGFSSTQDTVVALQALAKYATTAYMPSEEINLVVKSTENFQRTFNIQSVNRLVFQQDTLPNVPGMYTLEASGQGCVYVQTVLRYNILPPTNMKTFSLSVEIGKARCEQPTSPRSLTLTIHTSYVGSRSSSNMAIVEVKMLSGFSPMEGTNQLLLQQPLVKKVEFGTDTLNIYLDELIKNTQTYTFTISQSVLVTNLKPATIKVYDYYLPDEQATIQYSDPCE

`OCC(O)CO` [glycerol] was tested, and the “LC-MS/MS PRM of the pepsin-digested thiol ester peptide conjugate” value (A2M (α2-macroglobulin)) was “reaction products between the thiol ester and glycerol was detected for A2M N1088H” and the “LC-MS/MS PRM of the pepsin-digested thiol ester peptide conjugate” value [1] was “the reaction product with the hydroxyl substrate glycerol was only detected for WT A2ML1”.
